≈ marks a conversion by molar mass, not a printed value.
Columns and labels:
[1] = Cytotoxicity against mouse J774.A1 cells assessed as reduction in cell viability incubated for 48 hrs by MTT assay; type: toxicity, cell-based
Leishmania infantum [2] = experiment: Antileishmanial activity against Leishmania infantum MHOM/MA/67/ITMAP263 intracellular amastigotes infected in primary peritoneal mouse macrophages assessed as inhibition of parasite growth by cell based assay; type: functional, organism-based; conditions: MHOM/MA/67/ITMAP263, Peritoneal macrophage
Leishmania amazonensis [3] = experiment: Antileishmanial activity against promastigote form of Leishmania amazonensis (MHOM/BR/71973/M2269) assessed as parasite growth inhibition measured after 72 hrs by Neubauer counting chamber based analysis; type: functional, organism-based; conditions: MHOM/BR/71973/M2269, 72 h
Leishmania amazonensis [4] = experiment: Antileishmanial activity against Leishmania amazonensis (MHOM/BR/71973/M2269) intracellular amastigotes infected in mouse peritoneal macrophages assessed as parasite growth inhibition incubated for 24 hrs by Giemsa staining based light microscopy analysis; type: functional, organism-based; conditions: MHOM/BR/71973/M2269, Peritoneal macrophage
Leishmania donovani [5] = experiment: Antileishmanial activity against promastigote form of wild-type Leishmania donovani MHOM/80/IN/Dd8 assessed as inhibition of parasite growth incubated for 48 hrs by MTT assay; type: functional, organism-based; conditions: MHOM/80/IN/Dd8, 48 h
Leishmania amazonensis [6] = experiment: Antileishmanial activity against promastigote form of Leishmania amazonensis MHOM/BR/77/LTB0016 incubated for 24 hrs by MTT assay; type: functional, organism-based; conditions: MHOM/BR/77/LTB0016, 24 h
Leishmania infantum [7] = experiment: Antileishmanial activity against promastigote form of Leishmania infantum MHOM/BR/70/BH46 promastigote assessed as parasite growth inhibition incubated for 72 hrs by Neubauer chamber analysis; type: functional, organism-based; conditions: MHOM/BR/70/BH46, 72 h
Leishmania amazonensis [8] = experiment: Antileishmanial activity against Leishmania amazonensis IFLA/Br/67/PH8 intracellular amastigotes infected in BALB/c mouse peritoneal macrophages assessed as reduction in intracellular amastigotes incubated for 72 hrs by fluorometric analysis; type: functional, organism-based; conditions: IFLA/Br/67/PH8, 72 h
Leishmania panamensis [9] = experiment: Antileishmanial activity against Leishmania panamensis MHOM/CO/87/UA140-EGFP intracellular amastigotes infected in U-937 cells assessed as parasite growth inhibition measured after 72 hrs by flow cytometry analysis; type: functional, organism-based; conditions: U-937, 72 h
U-937 = experiment: Cytotoxicity against human U-937 cells assessed as reduction in cell viability measured after 72 hrs by MTT assay; type: functional; conditions: read-out: LC50 (the source's name)
Leishmania mexicana [10] = experiment: Antileishmanial activity against mammalian stage Leishmania mexicana MNYC/BZ/62/M379 axenic amastigotes assessed as inhibition of […] incubated for 24 hrs by alamar blue assay; type: functional; conditions: read-out: ED50 (the source's name)
Leishmania major [11] = experiment: Antileishmanial activity against Leishmania major axenic amastigotes assessed as parasite growth inhibition by Alamar blue assay; type: functional, organism-based
Leishmania major [12] = experiment: Antileishmanial activity against Leishmania major JISH118 promastigote infected in human THP-1 cells assessed as parasite growth inhibition measured after 48 hrs by Giemsa staining based analysis; type: functional, organism-based; conditions: JISH118, THP-1, 48 h
Leishmania mexicana [13] = experiment: Inhibition of recombinant Leishmania mexicana CPB2.8 delta CTE at 20 uM
Leishmania panamensis [14] = experiment: Antileishmanial activity against Leishmania panamensis MHOM/CO/87/UA140pIR-GFP intracellular amastigotes infected in human U-937 cells assessed as parasite growth inhibition measured after 72 hrs by flow cytometry analysis; type: functional, organism-based; conditions: U-937, 72 h
Leishmania infantum [15] = experiment: Antileishmanial activity against Leishmania infantum MHOM/MA/67/ITMAP263 intracellular amastigotes infected in mouse bone marrow derived macrophage cells assessed as parasite growth inhibition measured after 24 hrs by DAPI staining based microscopic analysis; type: functional, organism-based; conditions: MHOM/MA/67/ITMAP263, Macrophage
[16] = Cytotoxicity against mouse bone marrow-derived macrophage cells assessed as reduction in cell viability measured after 24 hrs by resazurin assay; type: toxicity, cell-based, BMDM; conditions: bone marrow-derived macrophages
Leishmania donovani [17] = experiment: Antileishmanial activity against promastigote form of Leishmania donovani MHOM/IN/80/Dd8 transfected with firefly luciferase gene assessed as parasite growth inhibition incubated for 96 hrs by Steady Glo reagent based luminescence assay; type: functional, organism-based; conditions: MHOM/IN/80/Dd8, 96 h
[18] = target: Trypanothione reductase (Leishmania donovani) (UniProt P39050); experiment: Inhibition of Leishmania donovani trypanothione reductase expressed in Escherichia coli BL21(DE3) using TS2 and NADPH as substrate at 100 uM preincubated for 5 mins followed by substrate addition by DTNB-reagent based spectrophotometric method
Leishmania amazonensis [19] = experiment: Antileishmanial activity against promastigote form of Leishmania amazonensis (MHOM/BR/75/Josefa) assessed as inhibition of parasite growth measured after 72 hrs by Neubauer counting chamber based analysis; type: functional, organism-based
[20] = tested on: Mycobacterium tuberculosis; experiment: Antimycobacterial activity against Mycobacterium tuberculosis H37Rv ATCC 27294 assessed as inhibition of bacterial growth and measured at 7 to 14 day by broth microdilution assay; type: functional; conditions: time 7-14 day
Leishmania major [21] = experiment: Antileishmanial activity against Leishmania major (MHOM/IR/-173) promastigotes assessed as inhibition of parasite growth incubated for 72 hrs by alamar blue staining based analysis; type: functional, organism-based; conditions: MHOM/IR/-173, 72 h
Leishmania amazonensis [22] = experiment: Antileishmanial activity against promastigote form of Leishmania amazonensis (MHOM/BR/71973/M2269) assessed as parasite growth inhibition by MTT assay; type: functional, organism-based
Leishmania amazonensis [23] = experiment: Antileishmanial activity against amastigote form of Leishmania amazonensis (MHOM/BR/71973/M2269) assessed as parasite growth inhibition by MTT assay; type: functional, organism-based
[24] = Selectivity index, ratio of CC50 for cytotoxicity against human THP1 cells to IC50 for antileishmanial activity against promastigote form of Leishmania donovani; type: toxicity, cell-based; conditions: read-out: Ratio CC50/IC50
Leishmania donovani [25] = experiment: Antileishmanial activity against promastigote form of Leishmania donovani assessed as inhibition of promastigote growth incubated for 48 hrs by Alamar blue assay; type: functional, organism-based
Leishmania panamensis [26] = experiment: Antileishmanial activity against promastigote form of Leishmania panamensis MHOM/CO/87/UA140-EGFP infected in human U-937 cells assessed as parasite growth inhibition measured after 72 hrs by flow cytometer analysis; type: functional, organism-based; conditions: U-937, 72 h
Leishmania braziliensis = experiment: Antileishmanial activity against promastigote form of Leishmania braziliensis MHOM/CO/88/301-EGFP infected in human U-937 cells assessed as parasite growth inhibition measured after 72 hrs by flow cytometer analysis; type: functional, organism-based; conditions: U-937, 72 h

Trypanothione reductase (Leishmania donovani), sequence (P39050 whole entry): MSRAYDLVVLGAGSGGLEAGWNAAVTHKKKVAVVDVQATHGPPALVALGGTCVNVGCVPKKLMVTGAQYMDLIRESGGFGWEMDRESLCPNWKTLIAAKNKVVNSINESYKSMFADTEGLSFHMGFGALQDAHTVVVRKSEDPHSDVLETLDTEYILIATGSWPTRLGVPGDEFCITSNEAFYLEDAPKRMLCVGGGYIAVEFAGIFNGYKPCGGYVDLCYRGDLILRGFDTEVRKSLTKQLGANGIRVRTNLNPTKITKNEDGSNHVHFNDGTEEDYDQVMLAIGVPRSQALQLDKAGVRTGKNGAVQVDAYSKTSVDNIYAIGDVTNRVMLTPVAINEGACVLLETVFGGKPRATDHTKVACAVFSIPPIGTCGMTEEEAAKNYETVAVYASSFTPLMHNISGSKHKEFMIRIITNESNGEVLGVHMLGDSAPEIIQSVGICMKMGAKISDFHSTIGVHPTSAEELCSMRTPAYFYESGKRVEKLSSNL

With `O=C1c2ccccc2C(=O)N1CCn1cc(-c2ccccc2)nn1` the CC50 at 48 h [1] was > 500 µM.
For `COC(=O)c1ccc(NC(=O)CSc2nc3ccc(Cl)cc3n2Cc2cc(C)cc(C)c2)c(Cl)c1`, the IC50 (Leishmania infantum [2]) was 6.82 µM.
Molecule `CC(C)COc1ccc2c(-c3ccccc3)cc(=O)oc2c1` has an IC50 (Leishmania amazonensis [3]) of 21.4 µM and an IC50 (Leishmania amazonensis [4]) of 58.1 µM.
`CCCCCCCCCCCCCCCCOP(=O)([O-])OCC[N+](C)(C)C` [MILTEFOSINE] showed an IC50 (Leishmania donovani [5]) of 24.2 µM and an IC50 (Leishmania infantum [2]) of 4.5 µM.
For `NC(=S)N/N=C(\C=C\c1ccc(Cl)cc1)c1ccccc1`, the IC50 (Leishmania amazonensis [6]) was 5.22 µM.
With `CCc1ccc(NC(=S)N/N=C/c2c[nH]c3c(C)cc(Br)cc23)cc1` the IC50 (Leishmania infantum [7]) was 4.36 µM.
`CCCCCCCCCCn1cc(COCC2CO2)[n+](C)n1` (stereo not given) gave an IC50 (Leishmania amazonensis [8]) of 7.61 µM.
In the case of `O=C1C=C(c2ccc(C(F)(F)F)cc2)S(=O)(=O)c2ccc(F)cc21`, the EC50 (Leishmania panamensis [9]) is reported as 3.24 µM and the CC50 (U-937) is reported as 561 µM.
With `CC1(C)CC[C@]2(NC(=O)N3CCC[C@H]3C(=O)O)CC[C@]3(C)C(=CC[C@@H]4[C@@]5(C)CC[C@@H]6OC(C)(C)OC[C@@]6(C)[C@@H]5CC[C@]43C)[C@@H]2C1` the EC50 (Leishmania mexicana [10]) was 4 µM.
In the case of `COc1ccc(-c2nn(-c3ccccc3)cc2/C=C/C(=O)c2ccc([N+](=O)[O-])cc2)cc1`, the IC50 (Leishmania major [11]) is reported as 2.3 µM.
`c1cncc(Nc2nnc(-c3ccc(C(c4c[nH]c5ccccc45)c4c[nH]c5ccccc45)cc3)s2)c1` showed an IC50 (Leishmania major [12]) of 0.7 µM.
With `COC(=O)c1ccc(NC(=O)CSc2nc3ccccc3n2S(=O)(=O)c2cc(C)cc(C)c2)cc1` the inhibition (Leishmania mexicana [13]) was 97%.
In the case of `S=C(N/N=C/c1c[nH]c2c(Br)cc(Br)cc12)Nc1ccccc1`, the IC50 (Leishmania infantum [7]) is reported as 5.6 µM.
For `O=c1ccoc2cc(OCCCCCCCCCOc3cccc4cccnc34)ccc12`, the EC50 (Leishmania panamensis [14]) was 6.11 µg/mL (≈ 14.2 µM).
Work on `CCCCCCCCNCc1ccc2c(c1)C(=O)CC(C)(C)O2` yielded an IC50 (Leishmania infantum [15]) of 24.6 µM and a CC50 at 24 h [16] of 40.2 µM.
`C=C(C1c2[nH]c3ccccc3c2CCN1C(=O)OC(C)(C)C)N(CC(=O)NC(C)(C)C)Cc1ccc(C)cc1` (stereo not given) gave an IC50 (Leishmania donovani [17]) of 0.06 µM and an inhibition [18] of 53%.
Work on `O=c1ccoc2cc(OCCCCOc3cccc4ccccc34)ccc12` yielded an EC50 (Leishmania panamensis [14]) of 6.11 µg/mL (≈ 17 µM).
With `CN(C)CCCn1cc(/C=C/C(=O)c2ccc(Cl)cc2)c2ccccc21` the IC50 (Leishmania donovani [5]) was 21.5 µM.
With `CC1=CC[C@@H](C(C)(C)NC(=S)N/N=C/c2cccc([N+](=O)[O-])c2)CC1` the IC50 (Leishmania amazonensis [19]) was 2.4 µM.
`OCc1cn(-c2cc(O)ccc2O)nn1` gave an MIC90 [20] of 16 µM (≈ 3.32 µg/mL) and an IC50 (Leishmania major [21]) of 23 µM.
Molecule `O=[N+]([O-])c1ccc(COc2ccc(-c3nc4ccccc4[nH]3)cc2)cc1` has an IC50 (Leishmania donovani [5]) of 68 µM.
In the case of `CCCc1cc(OC)c2oc(=O)c(C(=O)c3ccc([N+](=O)[O-])cc3)cc2c1`, the IC50 (Leishmania amazonensis [22]) is reported as 3.53 µM and the IC50 (Leishmania amazonensis [23]) is reported as 12 µM.
With `CC(C)CCN1C(=O)C=CC1=O` the selectivity ratio [24] was > 781 and the IC50 (Leishmania donovani [25]) was < 0.0128 µg/mL.
For `O=C(N/N=C1\CCOc2ccccc21)c1ccccc1`, the EC50 (Leishmania panamensis [26]) was 20.1 µg/mL (≈ 75.5 µM) and the EC50 (Leishmania braziliensis) was 12.1 µg/mL (≈ 45.4 µM).
In the case of `CN(C)CCCn1cc(/C=C/C(=O)c2ccc(I)cc2)c2ccccc21`, the IC50 (Leishmania donovani [5]) is reported as 24.2 µM.
In the case of `Cc1cccc(Nc2nnc(-c3ccc(C(c4c[nH]c5ccccc45)c4c[nH]c5ccccc45)cc3)s2)c1`, the IC50 (Leishmania major [12]) is reported as 0.7 µM.
